This is an account of results in paper PMC2999418, “Biological Activity and Binding Site Characteristics of the PA1b Entomotoxin on Insects from Different Orders” (Journal of Insect Science, 2007).

For series [1], the system named is Mamestra brassicae. The series can be described thus: Cabbage moth larval toxicity test on artificial medium with toxin. The class given is in vivo. The following applies: 1000 µg PA1b per g of diet, larvae L1 to pupa; data not shown. As to the method:
The cabbage moth Mamestra brassicae (Lepidoptera) was grown on the artificial medium described by Poitout and Bues ([1974]). PA1b was added to this media and the mortality of larvae (from L1 to pupa) was monitored daily.
(§1) All toxicity assays were carried out using a mixture of PA1b isoforms (98% purity by HPLC). All tests were performed on at least 30 insects for assays and for control test (without toxin), except for the three aphid species (50 insects) and for Trichogramma (more than 300 eggs by assays). When adults were used, the insects were synchronized at the imaginal molt. The statistical analyses were performed using the JMP software (SAS, Grégy-sur-Yerres FRA).

The subject of series [2] is Drosophila melanogaster. The settings on record: cited from earlier work. As to the method:
However, diet is not sufficient alone to explain insensitivity, as the three aphid species tested were assayed on the same artificial diet with very different results. We can thus suppose ...

Series [3] has as its system Ephestia kuehniella. The following applies: ref Delobel et al 1998; cited from earlier work. As to the method:
Ephestia kuehniella was previously found to be sensitive to the toxin ([Delobel et al 1998]). In contrast, 1000 µg PA1b per g of diet had no effect on the cabbage moth Mamestra brassicae, either on the mortality or on the development and ecdysis of the insects (data not shown).

Series [4] relates to pronase E type XIV. The series can be described thus: PA1b degradation assay with commercial protease. The settings on record: 10 µg pronase E, 37°C, one night incubation, C18 HPLC. The class given is in vitro ADME. On the procedure: (§2) PA1b degradation assays were performed using 10 µg of peptide (PA1b isoform mixture) in a final volume of 100 µl buffer. Assays with commercially (SIGMA, www.sigmaaldrich.com) available enzymes were performed in Glycine-NaOH buffer (20 mM pH 9) at 3O°C for proteinase K (E.C. 3.4.21.64), Tris-HCl buffer (20 mM pH 7.5) + EDTA 10 mM at 37°C for pronase E type XIV, MES-NaOH buffer (20 mM pH 6.2) at 25°C for papain (E.C. 3.4.22.2), Tris-HCl buffer (20 mM pH 7.8) at 25°C for chymotrypsin (E.C. 3.4.21.1), and Tris-HCl buffer (20 mM pH 7.6) at 25°C for trypsin (E.C. 3.4.21.4). Assays were done with 10 µg of each enzyme, and control assays were performed with 10 µg of enzymes denaturated by 10 min boiling. Assays with insect extracts were carried out in 20 mM buffers from pH 3 to 9 (Glycine-HCl, pH 3; sodium acetate pH 4-5; MES-NaOH pH 6; Tris-HCl pH 7-8; Glycine NaOH pH 9) at 3O°C. […]
For all assays, after a one night incubation, 150 µl of methanol were added to the mixture and incubated for 60 min at 4°C. […] PA1b peptide isoforms were detected by their absorbance at 210 nm, quantified by the measurement of the peak area and with reference to known quantities of pure peptide isoform used as standards.

In series [5] the test system is gut extracts from M. brassicae. The class given is in vitro ADME, Mamestra brassicae. The settings on record: 400 µg M. brassicae gut proteins per assay, 10 µg PA1b, pH 3 to 9, 30°C, one night incubation; C18 HPLC; data not shown. As to the method:
as §2
For all assays, after a one night incubation, 150 µl of methanol were added to the mixture and incubated for 60 min at 4°C. […] PA1b peptide isoforms were detected by their absorbance at 210 nm, quantified by the measurement of the peak area and with reference to known quantities of pure peptide isoform used as standards. […]

For series [6], the target named is PA1b binding protein on membrane extracts. Nature of the series: 125I-PA1b binding (competition) on insect membrane extracts. Further details: species or system Drosophila melanogaster. The following applies: D. melanogaster membrane extracts; competition with purified 3741 isoform. On the procedure: (§3) The isolation of membrane proteins for binding studies was performed as described by Gressent et al. ([2003]). For PA1b degradation tests, insect extracts were prepared as follows, 1 g of insects were ground with a mortar and pestle in liquid nitrogen. The resulting powder was resuspended in 2 ml of extraction buffer (20 mM Tris-HCl pH 8; 0.25 M sucrose; 2 mM MgCl2). The slurry was centrifuged for 2 min at 1000 g, and the supernatant was stored at -2O°C until required. All the operations were performed at 4°C.
(§4) The peptidic toxin PA1b-3471 isoform was labelled with I^125 to a specific radioactivity of about 900 Ci.mmor^-1, and then used for binding studies with membrane extracts, according to Gressent et al. ([2003]).
(§5) PA1b binding activity was present in all insect species, except for the resistant weevil strains and the pea specific pest Bruchus pisorum, regardless of the sensitivity or insensitivity of these insects to PA1b toxicity, as evaluated from our insect bioassays. […] The relative abundance of the binding sites was also slightly different in this group of species, varying from 10 pmol/mg of protein for T. pretiosum to a maximum of 79 pmol/mg of protein for M. persicae.

The target is the same in series [7]. The series is described as above. The settings on record: T. castaneum membrane extracts; competition with purified 3741 isoform. Further details: species or system Tribolium castaneum. As to the method:
as §3, §4, §5

The target is the same in series [8]. The series is described as above. Further details: species or system Myzus persicae. The settings on record: M. persicae membrane extracts; competition with purified 3741 isoform. On the procedure: as §3, §4, §5
Series [9] has as its system Aphis gossypii. The series can be described thus: Aphid growth and toxicity assay on artificial diet with toxin. The class given is in vivo. The settings on record: 1000 µg.ml^-1 in artificial diet. As to the method: (§6) Growth and toxicity assays were carried out on the aphids Aphis gossypii, Myzus persicae and Acyrthosiphon pisum, Hemiptera, according to Rahbé and Febvay ([1993]). Larvae of the fruit fly Drosophila melanogaster, Diptera, were provided by Dr. Allemand (UMR 5558 CNRS-UCBL, Lyon, France).
as §1
(§7) Figure 2. Effects of PA1b on three aphid species. Tests were carried out with artificial diet supplemented with the toxin at increasing concentrations, and mortality of the insects was monitored daily (relative larval survival is used in the graph). Circle : A. pisum; Square : M. persicae; Triangle : A. gossypii.

The test system of series [10] is Myzus persicae. The series is described as above. In kind it is in vivo. The following applies: doses up to 1000 µg.ml^-1 in artificial diet. As to the method:
as §6, §1, §7

The subject of series [11] is Acyrthosiphon pisum. The description is as above. In kind it is in vivo. The settings on record: after six days feeding. As to the method: as §6, §1, §7

With “ASCNGVCSPFEMPPCGTSACRCIPVGLVIGYCR NPSG (bicyclic or more) [PA1b, plant peptide of 37 amino acids purified from pea (Pisum sativum) seeds; entomotoxic cystine-knot peptide with three disulfide bonds]”, the “effect on mortality, development and ecdysis” value in [1] is reported as “no effect”. Besides, in series [2] (fruit-based mixture diet, dose similar to that used on other insects, delayed larval development, increased larval mortality, ref Gressent, unpublished results), the “toxicity to larvae grown on a fruit-based mixture” value is on record as “significantly toxic”. The “sensitivity to the toxin” value in [2] (ref Delobel et al.1998) was “insensitive”; in series [3], “sensitive”. In [4] (10 µg PA1b, Tris-HCl pH 7.5 + EDTA 10 mM), the “PA1b recovered after pronase E treatment, relative to control” value is listed as 20 % of the control. The “Recovered PA1b, Assays” value in series [4] (10 µg PA1b isoform mixture in 100 µl Tris-HCl 20 mM pH 7.5 + EDTA 10 mM, UV 210 nm, mean of triplicates) was 1.7 µg. Further, the “recovery of PA1b after incubation with native or heat inactivated gut proteins” value in [5] was “no difference”. Also, the Kd in [6] was found to be 0.016 µM; in series [7] it was 0.011 µM; in [8] it was 0.062 µM. Further, in series [9], the lethality was 37%. Moreover, the mortality entry in series [10] is reported as “no mortality”; in series [11] (150 µg.ml^-1 in artificial diet), 57%; in series [11] (500 µgml^-1 in artificial diet), “total”.
